Where two headings read alike, the source gives them in different places.
Key:
[1] = Acidity constant (pKa) measurement, Sirius T3 UV-metric, and speciation at pH 7.4; settings: for Double negative form (pH = 7.40) / Negative form (pH = 7.40) / Neutral form (pH = 7.40) / αneutral % (fraction of neutral species): from experimental pKa; for αneutral % (fraction of neutral species): pH 7.4; for pKa: pKa (Acid)
SH-SY5Y cells = settings: for Toxic ratio (TR) TRNOI: against baseline cytotoxicity; for IC10, SH-S5Y5, NOI: cytotoxicity, NOI assay cells
Summary of the method: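 Cytotoxicity was scored by live–dead nuclear staining (Nuclear Green LCS1 plus propidium iodide) after 24 h chemical exposure at 37° C. Cells were retinoic acid-differentiated (10 µM) and held in medium with 2% B-27 and 2 mM GlutaMAX. Duplicate 11-point dilution series were used, and IC10 was derived.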

[2] = tested on: Mitochondrial Membrane Potential; assay: cells; settings: for EC10, linear / logEC10: MMP bioassay, dosing range all; for EC10, linear: linear model; for logEC10: log-logistic model; for log(1/EC10) MMP: input of the ToxPi score, values up to 1.00; for Specificity ratio (SRbaseline) SRMMP: against baseline cytotoxicity; for Specificity ratio (SRcytotoxicity) SRMMP: against experimental cytotoxicity; for Relative effect potency REPMMP: relative to BPA; for SR (MMP inhibition): specificity ratio
[3] = phosphate buffer with […] KCl, Sirius T3 titrator, second pKa column, experimental, this study
[4] = phosphate buffer with […] KCl, Sirius T3 titrator, experimental, this study
[5] = NOI bioassay cytotoxicity, dosing range all, linear model
[6] = NOI bioassay cytotoxicity, dosing range all, log-logistic model
[7] = NOI bioassay cytotoxicity, dosing range all
[8] = Arec32, read-out: EC10, linear transformed
[9] = Arec32, read-out: EC10, MMP (M)

## Cc1ccc(S(=O)(=O)NC(=O)Nc2ccc(Cc3ccc(NC(=O)NS(=O)(=O)c4ccc(C)cc4)cc3)cc2)cc1 [BTUM, 4,4'-Bis(p-tolylsulfonylureido)diphenylmethane]
[1]
  Double negative form (pH = 7.40): 99.53%
  Negative form (pH = 7.40): 0.47%
  Neutral form (pH = 7.40): 0.0007%
  αneutral % (fraction of neutral species): 0.0007%
[1]; [3]
  pKa: 5.07
[1]; [4]
  pKa: 4.59
SH-SY5Y cells; [5]
  IC10, linear: no cytotoxicity
SH-SY5Y cells; [6]
  logIC10: no cytotoxicity
[2]
  EC10, linear: no effect
  logEC10: no effect

## COC(=O)C(c1ccc(O)cc1)c1ccc(O)cc1 [Bz, Methyl bis(4-hydroxyphenyl)acetate]
[1]
  Double negative form (pH = 7.40): 3%
  Negative form (pH = 7.40): 26%
  Neutral form (pH = 7.40): 71%
  αneutral % (fraction of neutral species): 71%
[1]; [3]
  pKa: 8.34
[1]; [4]
  pKa: 7.83
SH-SY5Y cells; [7]
  IC10, linear transformed: 5.07E-04
SH-SY5Y cells; [5]
  IC10, linear: 3.73E-04
SH-SY5Y cells; [6]
  logIC10: -3.30
SH-SY5Y cells
  Toxic ratio (TR) TRNOI: 0.85
  IC10, SH-S5Y5, NOI: 373 µM
[2]; Arec32, read-out: EC10, linear
  EC10: 3.72e-05 M
[2]; [8]
  EC10: 5.74e-05 M
[2]; Arec32, read-out: logEC10
  EC10: 6.46e-05 M
[2]
  log(1/EC10) MMP: 0.84

## O=C(OCc1ccccc1)c1ccc(O)cc1 [BzPB, Benzyl 4-hydroxybenzoate]
[1]
  Negative form (pH = 7.40): 0.599%
  Neutral form (pH = 7.40): 99%
  αneutral % (fraction of neutral species): 99%
[1]; [4]
  pKa: 9.62
SH-SY5Y cells; [7]
  IC10, linear transformed: 3.89E-04
SH-SY5Y cells; [5]
  IC10, linear: no cytotoxicity
SH-SY5Y cells; [6]
  logIC10: -3.41
SH-SY5Y cells
  Toxic ratio (TR) TRNOI: 0.07
  IC10, SH-S5Y5, NOI: 389 µM
[2]; Arec32, read-out: EC10, MMP
  EC10: 2.44e-05 M
[2]; [9]
  EC10: 2.44e-05 M
[2]; Arec32, read-out: EC10, linear
  EC10: 1.68e-05 M
[2]; [8]
  EC10: 2.45e-05 M
[2]; Arec32, read-out: logEC10
  EC10: 2.45e-05 M
[2]
  Specificity ratio (SRbaseline) SRMMP: 1.38
  Specificity ratio (SRcytotoxicity) SRMMP: 12.18
  Relative effect potency REPMMP: 1.15
  SR (MMP inhibition): > 10

## CC(C)Oc1ccc(S(=O)(=O)c2ccc(O)cc2)cc1 [D8, 4-((4-Isopropoxyphenyl)sulfonyl)phenol]
[1]
  Negative form (pH = 7.40): 39%
  Neutral form (pH = 7.40): 61%
  αneutral % (fraction of neutral species): 61%
[1]; [4]
  pKa: 7.6
SH-SY5Y cells
  IC10, linear: no cytotoxicity
  Toxic ratio (TR) TRNOI: 0.22
SH-SY5Y cells; human, 24 h
  logIC10: -3.31
[2]; Arec32, read-out: EC10, MMP
  EC10: 5.2e-05 M
[2]; [9]
  EC10: 5.2e-05 M
[2]; Arec32, read-out: EC10, linear
  EC10: 5.8e-05 M
[2]; [8]
  EC10: 5.14e-05 M
[2]; Arec32, read-out: logEC10
  EC10: 5.25e-05 M
[2]
  Specificity ratio (SRbaseline) SRMMP: 2.47
  Specificity ratio (SRcytotoxicity) SRMMP: 41.11
  Relative effect potency REPMMP: 0.54
  SR (MMP inhibition): 41

## Cc1ccc(S(=O)(=O)NC(=O)Nc2cccc(OS(=O)(=O)c3ccc(C)cc3)c2)cc1 [Pergafast, N-(p-toluenesulfonyl)-N'-(3-(p-toluenesulfonyloxy)phenyl)urea]
[1]
  Negative form (pH = 7.40): 100%
  Neutral form (pH = 7.40): 0.089%
  αneutral % (fraction of neutral species): 0.089%
[1]; [4]
  pKa: 4.35
SH-SY5Y cells; [5]
  IC10, linear: 4.94E-05
SH-SY5Y cells; [6]
  logIC10: no cytotoxicity
SH-SY5Y cells
  Toxic ratio (TR) TRNOI: 2.23
  IC10, SH-S5Y5, NOI: 49.4 µM
[2]
  EC10, linear: no effect
  logEC10: no effect
  log(1/EC10) MMP: 0.92

## CC(C)(c1cc(Br)c(O)c(Br)c1)c1cc(Br)c(O)c(Br)c1 [TBBPA, 3,3',5,5'-Tetrabromobisphenol A]
[1]
  Double negative form (pH = 7.40): 56%
  Negative form (pH = 7.40): 39%
  Neutral form (pH = 7.40): 4.58%
  αneutral % (fraction of neutral species): 5%
[1]; [3]
  pKa: 7.24
[1]; [4]
  pKa: 6.47
SH-SY5Y cells; [5]
  IC10, linear: no cytotoxicity
SH-SY5Y cells; [6]
  logIC10: no cytotoxicity
[2]; Arec32, read-out: EC10, MMP
  EC10: 2.83e-05 M
[2]; [9]
  EC10: 2.83e-05 M
[2]; Arec32, read-out: EC10, linear
  EC10: 1.94e-05 M
[2]; [8]
  EC10: 2.89e-05 M
[2]; Arec32, read-out: logEC10
  EC10: 2.82e-05 M

## CC(C)(c1cc(Cl)c(O)c(Cl)c1)c1cc(Cl)c(O)c(Cl)c1 [TCBPA, 2,2',6,6'-Tetrachlorobisphenol A]
[1]
  pKa (Acid): 8.13
  Double negative form (pH = 7.40): 11%
  Negative form (pH = 7.40): 60%
  Neutral form (pH = 7.40): 29%
  αneutral % (fraction of neutral species): 29%
  pKa: 7.08
SH-SY5Y cells; [5]
  IC10, linear: 3.70E-08
SH-SY5Y cells; [6]
  logIC10: no cytotoxicity
[2]; Arec32, read-out: EC10, MMP
  EC10: 1.48e-05 M
[2]; [9]
  EC10: 1.48e-05 M
[2]; Arec32, read-out: EC10, linear
  EC10: 1.15e-05 M
[2]; [8]
  EC10: 1.6e-05 M
[2]; Arec32, read-out: logEC10
  EC10: 1.48e-05 M

Source: article PMC12392461, “Beyond Estrogenicity: A Comparative Assessment of Bisphenol A and Its Alternatives in In Vitro Assays Questions Safety of Replacements” (Environmental Science & Technology, 2025)
